Results published in patent US10125135B2, “Chemical compounds” (AstraZeneca AB, priority 2016, dated 2018).

How the values were obtained:
[1] = molecular target: estrogen receptor (ERα) in MCF-7 human breast cancer cell line (Homo sapiens (Human), UniProt P03372); test: Western blotting assay, MCF-7 cells; assay type: cell-based; conditions: 100 nM compound, 48 h; normalised to vehicle (0%) and 100 nM fulvestrant (100%)
Method: (§1) The ability of compounds to down-regulate estrogen receptor (ER) was assessed by western blotting using human breast cancer cell lines (MCF-7 and CAMA-1). Cells were plated into 12-well tissue culture-treated plates at 0.5×10^6/well in phenol red-free RPMI containing 2 mM L-glutamine and 5% (v/v) charcoal treated foetal calf serum (F6765, Sigma). Cells were incubated with compounds (100 nM) or vehicle control (0.1% DMSO) for 48 h at 37° C., 5% CO2 before washing once with PBS and lysing with 80 μl lysis buffer (25 mM Tris/HCl, 3 mM EDTA, 3 mM EGTA, 50 mM NaF, 2 mM sodium orthovanadate, 0.27 M sucrose, 10 mM β-glycerophosphate, 5 mM sodium pyrophosphate, 0.5% TritonX-100, pH 6.8) on ice.
(§2) Cells were scraped, sonicated and centrifuged prior to performing a protein assay (DC Bio-Rad Protein kit, 500-0116) and making samples to a protein concentration of 1-2 mg/m1 in lysis buffer containing 1× LDS Sample Buffer (NP0007, Invitrogen) and 1× NuPAGE sample reducing agent (NP0009, Invitrogen). Samples were boiled for 10 min at 95° C. and then frozen at −20° C. until ready for use.
(§3) 10-20 μg protein was loaded onto 26-well Criterion gels (BioRad 345-0034). Gels were run at 125 V for 1 hr 25 min in running buffer (24 mM Tris Base Sigma, 192 mM Glycine, 3.5 mM SDS, made up in distilled water). Gels were then transferred at 30V for 2 hr in transfer buffer (25 mM Tris, 192 mM Glycine, 20% (v/v) methanol, pH 8.3, made up in distilled water) onto nitrocellulose membrane. The blot was stained with Ponceau S (P7170, Sigma) and cut according to appropriate molecular weight markers.
(§4) Membranes were blocked for 1 hour at room temp in 5% Marvel (w/v) in phosphate-buffered saline containing 0.05% Tween™ 20 (PBS/Tween). Blots were then incubated with anti-ERα (SP1) rabbit monoclonal antibody (Thermofisher) diluted 1:1000 at 4° C. overnight (with gentle shaking) followed by several washes with PBS/Tween. Secondary anti-rabbit HRP antibody (7074, CST) diluted 1:2000 dilution was incubated for 2 h at room temperature (with gentle shaking) followed by several washes with PBS/Tween. All antibodies were made up in 5% Marvel (w/v) in PBS/Tween.
(§5) The immunoblots were developed using Pierce WestDura chemiluminescent reagents (Thermo Scientific 34076) and developed/quantified on the G-box using Syngene software. Down-regulation of the ERα receptor was normalised to the vehicle control (0% down-regulation) and the 100 nM fulvestrant control (100% down-regulation) run within the same gel.

[2] = Human hepatocyte assay (metabolic stability); assay type: in vitro ADME; conditions: human hepatocytes, 37° C., 1.0×10^6 viable cells/mL; read-out: Clint (in vitro intrinsic clearance)
Method: The metabolic stability of compounds in human hepatocytes was assessed using the following protocol: • 1. Prepare 10 mM stock solutions of compound and control compounds in appropriate solvent (DMSO). Place incubation medium (L-15Medium) in a 37° C. water bath, and allow warming for at least 15 minutes prior to use. • 2. Add 80 μL of acetonitrile to each well of the 96-well deep well plate (quenching plate). • 3. In a new 96-well plate, dilute the 10 mM test compounds and the control compounds to 100 μM by combining 198 μL of acetonitrile and 2 μL of 10 mM stock. • 4. Remove a vial of cryopreserved (less than −150° C.) human hepatocytes (LiverPool™ 10 Donor Human hepatocytes obtained from Celsis IVT. Chicago, Ill. (Product No. S01205)) from storage, ensuring that vials remain at cryogenic temperatures until thawing process ensues. As quickly as possible, thaw the cells by placing the vial in a 37° C. water bath and gently shaking the vials. Vials should remain in water bath until all ice crystals have dissolved and are no longer visible. After thawing is completed, spray vial with 70% ethanol, transfer the vial to a bio-safety cabinet. • 5. Open the vial and pour the contents into the 50 mL conical tube containing thawing medium. Place the 50 mL conical tube into a centrifuge and spin at 100 g for 10 minutes. […] Using Cellometer® Vision, count cells and determine the viable cell density. Cells with poor viability (<80% viability) are not acceptable for use. Dilute cells with incubation medium to a working cell density of 1.0×10^6 viable cells/mL. • 7. Transfer 247.5 μL of hepatocytes into each well of a 96-well cell culture plate. Place the plate on Eppendorf Thermomixer Comfort plate shaker to allow the hepatocytes to warm for 10 minutes. • 8. Add 2.5 μL of 100 μM test compound or control compounds into an incubation well containing cells, mix to achieve a homogenous suspension at 0.5 min, which when achieved, will define the 0.5 min time point. At the 0.5 min time, transfer 20 μL incubated mixture to wells in a “Quenching plate” followed by vortexing. • 9. Incubate the plate at 37° C. at 900 rpm on an Eppendorf Thermomixer Comfort plate shaker. At 5, 15, 30, 45, 60, 80, 100 and 120 min, mix the incubation system and transfer samples of 20 μL incubated mixture at each time point to wells in a separate “Quenching plate” followed by vortexing. • 10. Centrifuge the quenching plates for 20 minutes at 4,000 rpm. 4 different compounds are pooled into one cassette and used for LC/MS/MS analysis.
All calculations are carried out using Microsoft Excel. Peak areas are determined from extracted ion chromatograms. In vitro intrinsic clearance (in vitro Clint, in μL/min/10^6 cells) of parent compound is determined by regression analysis of the Ln percent parent disappearance vs. time curve. The in vitro intrinsic clearance (in vitro Clint, in μL/min/10^6 cells) is determined from the slope value using the following equation and is shown in Table C:
V=incubation volume (0.25 mL);
N=number of hepatocytes per well (0.25×10 ^6 cells).

[3] = logD shake flask, 1-octanol/aqueous buffer; assay type: physicochemical; conditions: pH 7.4
Source text: The lipophilicity of a drug is an important physical property which may influence many biological and metabolic properties of a compound. The distribution coefficient between 1-octanol and aqueous buffer, Log DO/W, at pH 7.4, is the most commonly used measurement of the lipophilicity of a compound. The current method for measurement of Log DO/W is based on the traditional shake flask technique, but with the modification of measuring compounds in mixtures of ten at a time using UPLC with quantitative mass spectrometry (MS) as a method to measure the relative octanol and aqueous concentrations. […] An additional QC sample Caffeine, with low Log D, are used and randomly placed in all runs. The method has been thoroughly validated against the previous shake flask methodologies.

[4] = molecular target: estrogen receptor (ERα) in CAMA-1 human breast cancer cell line (Homo sapiens (Human), UniProt P03372); test: Western blotting assay, CAMA-1 cells; assay type: cell-based; conditions: 100 nM compound, 48 h; normalised to vehicle (0%) and 100 nM fulvestrant (100%)
Method: as §1, §2, §3, §4, §5

Chain of estrogen receptor (ERα) in CAMA-1 human breast cancer cell line (P03372 whole entry): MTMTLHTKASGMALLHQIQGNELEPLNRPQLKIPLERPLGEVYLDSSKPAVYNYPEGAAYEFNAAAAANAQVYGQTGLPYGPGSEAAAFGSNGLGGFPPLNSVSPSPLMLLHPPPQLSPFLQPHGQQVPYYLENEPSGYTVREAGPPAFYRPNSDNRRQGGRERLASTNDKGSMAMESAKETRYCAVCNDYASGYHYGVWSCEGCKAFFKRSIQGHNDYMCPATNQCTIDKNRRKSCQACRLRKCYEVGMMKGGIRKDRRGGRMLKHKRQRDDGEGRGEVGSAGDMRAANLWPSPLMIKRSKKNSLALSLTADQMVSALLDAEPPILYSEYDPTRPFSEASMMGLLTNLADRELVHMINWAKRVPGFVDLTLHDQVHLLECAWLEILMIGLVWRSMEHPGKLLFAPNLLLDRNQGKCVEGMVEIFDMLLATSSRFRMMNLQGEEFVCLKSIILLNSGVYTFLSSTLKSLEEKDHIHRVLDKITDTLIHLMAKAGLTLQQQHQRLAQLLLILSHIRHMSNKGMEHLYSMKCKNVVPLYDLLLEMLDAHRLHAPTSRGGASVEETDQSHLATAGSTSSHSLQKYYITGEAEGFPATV
Chain of estrogen receptor (ERα) in MCF-7 human breast cancer cell line (P03372 whole entry): as above

Row | SMILES | MCF7 Western % ER deg vs Fv [1] [%] | hepatocyte CLint at 1 µM [2] [µL/min/1e6 cells] | logD [3] | CAMA1 Western % ER deg vs Fv [4] [%]
1 | COc1cc(OCCN2CC(CF)C2)ccc1[C@@H]1c2ccc3[nH]ncc3c2C[C@@H](C)N1CC(C)C [Example 9, (6S,8R)-6-(4-(2-(3-(fluoromethyl)azetidin-1-yl)ethoxy)-2-methoxyphenyl)-7-isobutyl-8-methyl-6,7,8,9-tetrahydro-3H-pyrazolo[4,3-f]isoquinoline] | 97 | 3 | 2.4 | 81
2 | C[C@@H]1Cc2c(ccc3[nH]ncc23)[C@@H](c2ccc(OCCN3CC(CF)C3)cn2)N1CC(F)F [Example 51, (6S,8R)-7-(2,2-difluoroethyl)-6-(5-(2-(3-(fluoromethyl)azetidin-1-yl)ethoxy)pyridin-2-yl)-8-methyl-6,7,8,9-tetrahydro-3H-pyrazolo[4,3-f]isoquinoline] | 97 | 5 | 2.4 | 82
3 | COc1cc(OCCN2CC(CF)C2)ccc1[C@@H]1c2ccc3[nH]ncc3c2C[C@@H](C)N1CC(C)(C)F [Example 5, (6S,8R)-7-(2-fluoro-2-methylpropyl)-6-(4-(2-(3-(fluoromethyl)azetidin-1-yl)ethoxy)-2-methoxyphenyl)-8-methyl-6,7,8,9-tetrahydro-3H-pyrazolo[4,3-f]isoquinoline] | 69 | 12 | 3.5 | 74
4 | C[C@@H]1Cc2c(ccc3[nH]ncc23)[C@@H](c2ccc(OCCN3CC(CF)C3)cn2)N1CC(F)(F)F [Example 49, (6S,8R)-6-(5-(2-(3-(fluoromethyl)azetidin-1-yl)ethoxy)pyridin-2-yl)-8-methyl-7-(2,2,2-trifluoroethyl)-6,7,8,9-tetrahydro-3H-pyrazolo[4,3-f]isoquinoline] | 98 | 3 | 3 | 77
5 | C[C@@H]1Cc2c(ccc3[nH]ncc23)[C@@H](c2ccc(OCCN3CC(CF)C3)cn2)N1CC1(F)CC1 [Example 8, (6S,8R)-7-((1-fluorocyclopropyl)methyl)-6-(5-(2-(3-(fluoromethyl)azetidin-1-yl)ethoxy)pyridin-2-yl)-8-methyl-6,7,8,9-tetrahydro-3H-pyrazolo[4,3-f]isoquinoline] | 80 | 8 | 2.6 | 86
6 | COc1cc(OCCN2CC(CF)C2)ccc1[C@@H]1c2ccc3[nH]ncc3c2C[C@@H](C)N1CC1(F)CC1 [Example 6, (6S,8R)-7-((1-fluorocyclopropyl)methyl)-6-(4-(2-(3-(fluoromethyl)azetidin-1-yl)ethoxy)-2-methoxyphenyl)-8-methyl-6,7,8,9-tetrahydro-3H-pyrazolo[4,3-f]isoquinoline] | 77 | 7 | 2.8 | 87
